# Reference: article PMC2196141 (The Journal of Experimental Medicine, 1997)
# Target: T1, CPP-32 (Homo sapiens, UniProt P42574)
# T1 sequence (P42574 29-175 limits assumed): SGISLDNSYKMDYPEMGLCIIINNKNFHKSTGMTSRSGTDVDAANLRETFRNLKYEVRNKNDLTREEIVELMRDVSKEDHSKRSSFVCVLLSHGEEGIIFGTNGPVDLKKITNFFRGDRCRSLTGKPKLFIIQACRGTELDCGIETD
# Assay: S-nitrosylation of purified p17
# Assay type: biochemical
compound,measurement,value
"[N]=O [NO, nitric oxide]",p17 wt / S-nitrosylation / S-NO/protein,1 ± 0.04 mol/mol
